# Experimental data as given in PubChem BioAssay (NCI).
#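 1) Cells in 96-well plates. 2) Compound, 48 h, 5 concentrations. 3) Linear interpolation between surrounding doses. 4) Unreached endpoint = highest concentration. Here, GI50 denotes the concentration required for 50% inhibition of growth. TGI is the concentration that stops growth completely.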
# What was measured:
# Assay in all cases: growth of human tumour cells (NCI), 48 h
# [1] = system: SK-MEL-28 melanoma
# [2] = system: HCT-116 colon
# [3] = system: MDA-MB-231 breast
# [4] = system: DU-145 prostate
# [5] = system: CAKI-1 renal
# [6] = system: 786-0 renal
# [7] = system: UACC-257 melanoma
# [8] = system: NCI-H522 lung
# [9] = system: MDA-MB-435
# [10] = system: OVCAR-3 ovarian
# [11] = system: SW-620 colon
# [12] = system: NCI/ADR-RES ovarian
# [13] = system: HL-60(TB) leukemia
# [14] = system: NCI-H460 lung
# [15] = system: SF-295 CNS
# [16] = system: T-47D breast
# [17] = system: HOP-92 NSCLC
# [18] = system: HOP-62 NSCLC
# [19] = system: MOLT-4 leukemia
# [20] = system: RXF 393 renal
# [21] = system: SF-539 CNS
# [22] = system: OVCAR-8 ovarian
# [23] = system: SK-MEL-5 melanoma
# [24] = system: MALME-3M melanoma
# [25] = system: UO-31 renal
# [26] = system: COLO 205 colon
# [27] = system: SF-268 CNS
# [28] = system: CCRF-CEM leukemia
# [29] = system: HCT-15 colon
# [30] = system: SNB-75 CNS
# [31] = system: SK-OV-3 ovarian
# [32] = system: A498 renal
# [33] = system: PC-3 prostate
# [34] = system: MCF7 breast
# [35] = system: KM12 colon
# [36] = system: ACHN renal
# [37] = system: SN12C renal
# [38] = system: SNB-19 CNS
# [39] = system: SK-MEL-2 melanoma
# [40] = system: HS 578T breast
# [41] = system: NCI-H226 lung
# [42] = system: SR leukemia
# [43] = system: K-562 leukemia
# [44] = system: OVCAR-5 ovarian
# [45] = system: RPMI-8226 leukemia
# [46] = system: TK-10 renal
# [47] = system: NCI-H23 lung
# [48] = system: BT-549 breast
# [49] = system: A549 NSCLC
# [50] = system: UACC-62 melanoma
# [51] = system: M14 melanoma
# [52] = system: IGROV1 ovarian
# [53] = system: HCC-2998 colon
# [54] = system: LOX IMVI melanoma
smiles,measurement,setting,value
Cc1nc2ccc(Nc3nc(Cl)nc(Nc4ccc(F)cc4)n3)cc2n1Cc1ccccc1,GI50,[1],3.15 µM
same,TGI,[1],10.5 µM
same,GI50,[2],3.56 µM
same,TGI,[2],13.6 µM
same,GI50,[3],3.99 µM
same,TGI,[3],20.4 µM
same,GI50,[4],9.44 µM
same,TGI,[4],22.6 µM
same,GI50,[5],7.94 µM
same,TGI,[5],35.2 µM
same,GI50,[6],5.18 µM
same,TGI,[6],37 µM
same,GI50,[7],11.8 µM
same,TGI,[7],28.9 µM
same,GI50,[8],2.51 µM
same,TGI,[8],6.85 µM
same,GI50,[9],6.4 µM
same,TGI,[9],23.1 µM
same,GI50,[10],4.06 µM
same,TGI,[10],15 µM
same,GI50,[11],4.95 µM
same,TGI,[11],35 µM
same,GI50,[12],4.11 µM
same,TGI,[12],18.5 µM
same,GI50,[13],3.02 µM
same,TGI,[13],7.6 µM
same,GI50,[14],4.23 µM
same,TGI,[14],17.8 µM
same,GI50,[15],1.9 µM
same,TGI,[15],4.53 µM
same,GI50,[16],1.81 µM
same,TGI,[16],4.58 µM
same,GI50,[17],2.3 µM
same,TGI,[17],9.23 µM
same,GI50,[18],10.7 µM
same,TGI,[18],30.4 µM
same,GI50,[19],3.92 µM
same,TGI,[19],18.1 µM
same,GI50,[20],4.45 µM
same,TGI,[20],21.5 µM
same,GI50,[21],4.53 µM
same,TGI,[21],17.4 µM
same,GI50,[22],3.25 µM
same,TGI,[22],14.1 µM
same,GI50,[23],4.19 µM
same,TGI,[23],15.1 µM
same,GI50,[24],11.4 µM
same,TGI,[24],24.6 µM
same,GI50,[25],2.85 µM
same,TGI,[25],12.2 µM
same,GI50,[26],11.2 µM
same,TGI,[26],26.5 µM
same,GI50,[27],10.8 µM
same,TGI,[27],46.8 µM
same,GI50,[28],3.85 µM
same,TGI,[28],> 100 µM
same,GI50,[29],2.92 µM
same,TGI,[29],10.4 µM
same,GI50,[30],10.2 µM
same,TGI,[30],26.2 µM
same,GI50,[31],18.1 µM
same,TGI,[31],66.8 µM
same,GI50,[32],13.2 µM
same,TGI,[32],41 µM
same,GI50,[33],7.11 µM
same,TGI,[33],32.9 µM
same,GI50,[34],2.71 µM
same,TGI,[34],12.4 µM
same,GI50,[35],4.25 µM
same,TGI,[35],17.6 µM
same,GI50,[36],3 µM
same,TGI,[36],10.4 µM
same,GI50,[37],5.22 µM
same,TGI,[37],38.3 µM
same,GI50,[38],4.55 µM
same,TGI,[38],26.9 µM
same,GI50,[39],4.15 µM
same,TGI,[39],15 µM
same,GI50,[40],10.9 µM
same,TGI,[40],> 100 µM
same,GI50,[41],4.14 µM
same,TGI,[41],21.6 µM
same,GI50,[42],3.79 µM
same,TGI,[42],39.5 µM
same,GI50,[43],3.43 µM
same,TGI,[43],> 100 µM
same,GI50,[44],14.7 µM
same,TGI,[44],44.1 µM
same,GI50,[45],2.05 µM
same,TGI,[45],5.09 µM
same,GI50,[46],18.1 µM
same,TGI,[46],44.4 µM
same,GI50,[47],7.16 µM
same,TGI,[47],25.2 µM
same,GI50,[48],4 µM
same,TGI,[48],18.8 µM
same,GI50,[49],11.3 µM
same,TGI,[49],30.9 µM
same,GI50,[50],3.06 µM
same,TGI,[50],12.9 µM
same,GI50,[51],5.54 µM
same,TGI,[51],22 µM
same,GI50,[52],4.4 µM
same,TGI,[52],20.8 µM
same,GI50,[53],2.6 µM
same,TGI,[53],5.96 µM
same,GI50,[54],3.59 µM
same,TGI,[54],14.1 µM
